According to patent US20260200916A1, “6,6 BICYCLIC HETEROCYLES USEFUL AS INHIBITORS OF NOD-LIKE RECEPTOR PROTEIN 3” (Merck Sharp & Dohme LLC, priority 2022, published 2026):

Molecular target: T1, NLRP3 inflammasome (Homo sapiens, UniProt Q96P20)
T1 construct: host or cells: THP-1 human monocytic cells, PMA-differentiated, gramicidin-stimulated
Assay: ASC-SPECK formation in THP-1 cells after gramicidin stimulation (NLRP3 inflammasome activation)
Type: cell-based
Conditions: PMA-treated human monocytic THP-1 cells, compound added 1 h before 12.5 ug/ml gramicidin, 3-hour treatment, ASC SPECK imaging; read-out: EC50 (nM), inhibition of NLRP3 inflammasome activation
Experimental: The ability of compounds to inhibit NLRP3 inflammasome activation was determined in vitro by monitoring formation of the ASC-SPECK in human monocytic THP-1 cells after stimulation. THP-1 cells (ATCC catalog #TIB-202) were maintained in complete growth media containing Roswell Park Memorial Institute RPMI (ATCC catalog #30-2001), 10% heat inactivated fetal bovine serum, 1× penicillin/streptomycin and 0.05 mM 2-mercaptoethanol. At the start of the assay, undifferentiated THP-1 cells were plated at a density of 20,000 cells per well in a 384-well plate (Poly-D-lysine coated Cell Carrier Ultra microplate, Perkin Elmer catalog #6057500) in complete growth media supplemented with 10 ng/ml phorbol 12-myristate 13-acetate (PMA; Sigma catalog #P8139), and then incubated overnight. The next day, media was replaced with assay media [RPMI (Gibco catalog #11875-093), 0.01% bovine serum albumin (BSA)]. Compounds were serially diluted in DMSO and then added to wells one hour prior to the addition of 12.5 ug/ml Gramicidin (Enzo Lifescience, catalog #ALX-350-233-M005). All incubations were carried out at 37° C. (5% C02/95% air). Following a 3-hour treatment with gramicidin, cells are fixed with 4% paraformaldehyde and stored at 4° C. until immunofluorescence staining.
Immunofluorescence staining: Anti-ASC antibody (MBL catalog #D086-3) was desalted and labeled with Alexa 488 antibody labeling kit (Thermo catalog #A20181) prior to use as described below. After fixation, the following steps were carried out at room temperature. Cells were first permeabilized with 0.3% Triton X-100 in phosphate-buffered saline (PBS) for 15 minutes and then incubated in blocking buffer containing 5% goat serum, 0.3% tween-20 and 0.03% sodium azide in PBS for 1 hour. Cells were stained with a mixture of ASC-Alexa 488 antibody (diluted 1:200 in blocking buffer) and nuclear stain DRAQ5 (1:5000 in blocking buffer, Thermo catalog #62251) in blocking buffer for 1 hour. Following a wash with 0.3% Tween-20 in PBS, plates were imaged with an Opera Phenix High Content Screening System. The number of DRAQ5 positive cells containing ASC SPECKS were quantified in each well.
Data analysis: EC50 values were calculated by standard curve-fitting analysis using an internally developed program in TIBCO Spotfire software.

T1 sequence (Q96P20 whole entry): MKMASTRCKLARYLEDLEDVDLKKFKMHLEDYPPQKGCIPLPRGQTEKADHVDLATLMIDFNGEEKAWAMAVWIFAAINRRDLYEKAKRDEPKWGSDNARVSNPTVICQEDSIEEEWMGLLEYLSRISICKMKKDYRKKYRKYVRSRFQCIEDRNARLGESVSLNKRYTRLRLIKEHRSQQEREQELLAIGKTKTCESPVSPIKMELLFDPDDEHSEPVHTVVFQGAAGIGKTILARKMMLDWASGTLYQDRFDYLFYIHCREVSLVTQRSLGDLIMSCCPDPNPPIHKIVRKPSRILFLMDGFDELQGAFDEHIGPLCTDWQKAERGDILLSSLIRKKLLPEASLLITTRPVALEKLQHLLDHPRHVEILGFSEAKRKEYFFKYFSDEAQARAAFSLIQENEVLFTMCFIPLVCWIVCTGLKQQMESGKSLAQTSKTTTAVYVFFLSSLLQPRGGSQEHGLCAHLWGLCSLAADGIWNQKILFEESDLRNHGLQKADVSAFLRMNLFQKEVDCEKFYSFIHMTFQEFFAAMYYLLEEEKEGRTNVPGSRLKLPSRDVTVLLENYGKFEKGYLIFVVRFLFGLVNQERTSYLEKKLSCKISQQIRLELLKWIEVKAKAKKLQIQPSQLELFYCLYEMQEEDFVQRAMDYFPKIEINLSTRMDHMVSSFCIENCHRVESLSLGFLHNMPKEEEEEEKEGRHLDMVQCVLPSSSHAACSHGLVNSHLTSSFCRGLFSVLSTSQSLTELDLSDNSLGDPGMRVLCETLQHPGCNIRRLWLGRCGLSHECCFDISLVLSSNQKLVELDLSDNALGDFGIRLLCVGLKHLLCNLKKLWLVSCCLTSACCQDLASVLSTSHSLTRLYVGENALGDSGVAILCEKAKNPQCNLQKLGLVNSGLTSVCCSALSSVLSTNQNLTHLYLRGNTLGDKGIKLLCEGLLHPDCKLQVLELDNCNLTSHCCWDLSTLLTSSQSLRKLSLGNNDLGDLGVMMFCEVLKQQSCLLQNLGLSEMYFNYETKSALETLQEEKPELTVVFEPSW

Point of comparison: `Cc1cc(C(F)(F)F)cc(O)c1-c1cc2c(nn1)N([C@H]1C[C@@](C)(O)C1)C[C@H](N)C2` [Example 8, 2-((R)-6-amino-8-((1s,3S)-3-hydroxy-3-methylcyclobutyl)-5,6,7,8-tetrahydropyrido[2,3-c]pyridazin-3-yl)-3-methyl-5-(trifluoromethyl)phenol], EC50 285 nM. Against it:
- Cc1cc(C(F)(F)F)cc(O)c1-c1cc2c(nn1)N(C1CC(C)(C)C1O)CCC2 (single isomer, unassigned) [Example 5, 2-(8-((1S,2R or 1R,2S)-2-hydroxy-3,3-dimethylcyclobutyl)-5,6,7,8-tetrahydropyrido[2,3-c]pyridazin-3-yl)-3-methyl-5-(trifluoromethyl)phenol] — 5-fold higher, 1430 nM
- Cc1cc(C(F)(F)F)cc(O)c1-c1cc2c(nn1)N(C1CC(C)(C)C1O)CCC2 (single isomer, unassigned) [Example 6, 2-(8-((1R,2S or 1S,2R)-2-hydroxy-3,3-dimethylcyclobutyl)-5,6,7,8-tetrahydropyrido[2,3-c]pyridazin-3-yl)-3-methyl-5-(trifluoromethyl)phenol] — 2.4-fold lower, 118 nM
- Cc1cc(C(F)(F)F)cc(O)c1-c1cc2c(nn1)N([C@H]1C[C@@](C)(O)C1)CCC2 [Example 1, 2-(8-((1s,3s)-3-hydroxy-3-methylcyclobutyl)-5,6,7,8-tetrahydropyrido[2,3-c]pyridazin-3-yl)-3-methyl-5-(trifluoromethyl)phenol] — 6.8-fold lower, 42 nM
- CCN1CCC[C@@H](N2CCCc3cc(-c4c(C)cc(C(F)(F)F)cc4O)nnc32)C1 [Example 2, (R)-2-(8-(1-ethylpiperidin-3-yl)-5,6,7,8-tetrahydropyrido[2,3-c]pyridazin-3-yl)-3-methyl-5-(trifluoromethyl)phenol] — 57-fold lower, 5 nM
- Cc1cc(C(F)(F)F)cc(O)c1-c1cc2c(nn1)N(C13CCCC(O)(C1)C3)CCC2 [Example 3, 5-(3-(2-hydroxy-6-methyl-4-(trifluoromethyl)phenyl)-6,7-dihydropyrido[2,3-c]pyridazin-8(5H)-yl)bicyclo[3.1.1]heptan-1-ol] — 2.3-fold lower, 125 nM
- Cc1cc(C(F)(F)F)cc(O)c1-c1cc2c(nn1)N([C@@H]1CCCC[C@H]1O)CCC2 [Example 4, 2-(8-((1R,2R)-2-hydroxycyclohexyl)-5,6,7,8-tetrahydropyrido[2,3-c]pyridazin-3-yl)-3-methyl-5-(trifluoromethyl)phenol] — 1.8-fold lower, 157 nM
- Cc1cc(C(F)(F)F)cc(O)c1-c1cc2c(nn1)N(C[C@@H]1C[C@H](F)CN1)CCC2 [Example 7, 2-(8-(((2S,4S)-4-fluoropyrrolidin-2-yl)methyl)-5,6,7,8-tetrahydropyrido[2,3-c]pyridazin-3-yl)-3-methyl-5-(trifluoromethyl)phenol] — within 1.5-fold, 240 nM
- CCN1CCC[C@@H](N2CCCc3c2nnc(-c2ccc(C(F)(F)F)cc2O)c3C)C1 [Example 9, (R)-2-(8-(1-ethylpiperidin-3-yl)-4-methyl-5,6,7,8-tetrahydropyrido[2,3-c]pyridazin-3-yl)-5-(trifluoromethyl)phenol] — 5.9-fold lower, 48 nM
- CCN1CCC[C@@H](N2CCCc3c2nnc(-c2ccc(C(F)(F)F)cc2OC(F)F)c3C)C1 [Example 10, (R)-3-(2-(difluoromethoxy)-4-(trifluoromethyl)phenyl)-8-(1-ethylpiperidin-3-yl)-4-methyl-5,6,7,8-tetrahydropyrido[2,3-c]pyridazine] — within 1.5-fold, 380 nM
- CCN1CCC[C@@H](N2CCCc3c2nnc(-c2ccc(C(F)(F)F)nc2OC(F)F)c3C)C1 [Example 11, (R)-3-(2-(difluoromethoxy)-6-(trifluoromethyl)pyridin-3-yl)-8-(1-ethylpiperidin-3-yl)-4-methyl-5,6,7,8-tetrahydropyrido[2,3-c]pyridazine] — 3.8-fold higher, 1070 nM
- CCN1CCC[C@@H](N2CCCc3c2nnc(-c2ccc4occc4c2)c3C)C1 [Example 12, (R)-3-(benzofuran-5-yl)-8-(1-ethylpiperidin-3-yl)-4-methyl-5,6,7,8-tetrahydropyrido[2,3-c]pyridazine] — within 1.5-fold, 253 nM
- Cc1cc(C(F)(F)F)cc(O)c1-c1cc2c(nn1)N(C[C@@H]1C[C@H](F)CN1C)CCC2 [Example 13, 2-(8-(((2S,4S)-4-fluoro-1-methylpyrrolidin-2-yl)methyl)-5,6,7,8-tetrahydropyrido[2,3-c]pyridazin-3-yl)-3-methyl-5-(trifluoromethyl)phenol] — 2.2-fold higher, 629 nM
- Cc1cc(C(F)(F)F)cc(O)c1-c1cc2c(nn1)N([C@H]1CN(C)CC[C@H]1O)CCC2 [Example 14, (3S,4R)-3-(3-(2-hydroxy-6-methyl-4-(trifluoromethyl)phenyl)-6,7-dihydropyrido[2,3-c]pyridazin-8(5H)-yl)-1-methylpiperidin-4-ol] — 11-fold lower, 27 nM
- CCN1C[C@@H](F)C[C@H]1CN1CCCc2cc(-c3c(C)cc(C(F)(F)F)cc3O)nnc21 [Example 15, 2-(8-(((2S,4S)-1-ethyl-4-fluoropyrrolidin-2-yl)methyl)-5,6,7,8-tetrahydropyrido[2,3-c]pyridazin-3-yl)-3-methyl-5-(trifluoromethyl)phenol] — 2.4-fold higher, 692 nM
- CC(=O)N1C[C@H](F)C[C@H]1CN1CCCc2cc(-c3c(C)cc(C(F)(F)F)cc3O)nnc21 [Example 16, 1-((2S,4R)-4-fluoro-2-((3-(2-hydroxy-6-methyl-4-(trifluoromethyl)phenyl)-6,7-dihydropyrido[2,3-c]pyridazin-8(5H)-yl)methyl)pyrrolidin-1-yl)ethan-1-one] — within 1.5-fold, 317 nM
- CC(=O)N1C[C@@H](F)C[C@H]1CN1CCCc2cc(-c3c(C)cc(C(F)(F)F)cc3O)nnc21 [Example 17, 1-((2S,4S)-4-fluoro-2-((3-(2-hydroxy-6-methyl-4-(trifluoromethyl)phenyl)-6,7-dihydropyrido[2,3-c]pyridazin-8(5H)-yl)methyl)pyrrolidin-1-yl)ethan-1-one] — 2.1-fold higher, 597 nM
- CCC(=O)N1C[C@H](F)C[C@H]1CN1CCCc2cc(-c3c(C)cc(C(F)(F)F)cc3O)nnc21 [Example 18, 1-((2S,4R)-4-fluoro-2-((3-(2-hydroxy-6-methyl-4-(trifluoromethyl)phenyl)-6,7-dihydropyrido[2,3-c]pyridazin-8(5H)-yl)methyl)pyrrolidin-1-yl)propan-1-one] — within 1.5-fold, 204 nM
- Cc1cc(C(F)(F)F)cc(O)c1-c1cc2c(nn1)N(C[C@@H]1C[C@@H](F)CN1C(=O)C1CC1)CCC2 [Example 19, cyclopropyl((2S,4R)-4-fluoro-2-((3-(2-hydroxy-6-methyl-4-(trifluoromethyl)phenyl)-6,7-dihydropyrido[2,3-c]pyridazin-8(5H)-yl)methyl)pyrrolidin-1-yl)methanone] — 1.5-fold higher, 431 nM
- Cc1cc(C(F)(F)F)cc(O)c1-c1cc2c(nn1)N(C[C@@H]1C[C@@H](F)CN1C(=O)C1CCC1)CCC2 [Example 20, cyclobutyl((2S,4R)-4-fluoro-2-((3-(2-hydroxy-6-methyl-4-(trifluoromethyl)phenyl)-6,7-dihydropyrido[2,3-c]pyridazin-8(5H)-yl)methyl)pyrrolidin-1-yl)methanone] — 3.1-fold higher, 874 nM
- Cc1cc(C(F)(F)F)cc(O)c1-c1cc2c(nn1)N(C[C@@H]1C[C@@H](F)CN1S(C)(=O)=O)CCC2 [Example 21, 2-(8-(((2S,4R)-4-fluoro-1-(methylsulfonyl)pyrrolidin-2-yl)methyl)-5,6,7,8-tetrahydropyrido[2,3-c]pyridazin-3-yl)-3-methyl-5-(trifluoromethyl)phenol] — within 1.5-fold, 351 nM
- Cc1cc(C(F)(F)F)cc(O)c1-c1cc2c(nn1)N(C[C@@H]1C[C@H](F)CN1S(C)(=O)=O)CCC2 [Example 22, 2-(8-(((2S,4S)-4-fluoro-1-(methylsulfonyl)pyrrolidin-2-yl)methyl)-5,6,7,8-tetrahydropyrido[2,3-c]pyridazin-3-yl)-3-methyl-5-(trifluoromethyl)phenol] — 2.8-fold higher, 784 nM
